The target of one assay is hepatic lipase (HL) (Homo sapiens (Human), UniProt P11150). Put plainly: HL assay: hepatic lipase activity with fluorescent substrate A10070 in DMPG vesicles. It counts as biochemical. A digest of the protocol: (§1)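 Vesicles prepared: A10070 dried with DMPG, resuspended in HEPES pH 8.0/NaCl/EDTA, sonicated on ice. Enzyme incubated with compound 30 min at 37° C. Reaction started with 1:10 diluted vesicles. Fluorescence (490/530 nm) followed 60 min; slope from 300–900 secs gives rate.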
hepatic lipase (HL), sequence (P11150 23-499, species assumed): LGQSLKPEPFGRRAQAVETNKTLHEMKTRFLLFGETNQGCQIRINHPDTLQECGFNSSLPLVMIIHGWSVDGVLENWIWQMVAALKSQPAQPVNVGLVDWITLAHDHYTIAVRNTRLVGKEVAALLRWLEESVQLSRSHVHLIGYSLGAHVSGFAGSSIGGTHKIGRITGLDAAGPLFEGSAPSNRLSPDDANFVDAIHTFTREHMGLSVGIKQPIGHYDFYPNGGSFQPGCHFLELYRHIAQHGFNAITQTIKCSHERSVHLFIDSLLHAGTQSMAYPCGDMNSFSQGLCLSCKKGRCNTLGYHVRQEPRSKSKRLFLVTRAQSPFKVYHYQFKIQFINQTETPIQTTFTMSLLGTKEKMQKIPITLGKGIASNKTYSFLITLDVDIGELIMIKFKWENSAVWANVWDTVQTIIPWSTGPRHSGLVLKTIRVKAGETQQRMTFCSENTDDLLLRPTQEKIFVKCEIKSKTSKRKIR

In the next assay the target is Endothelial lipase (EL) (Homo sapiens (Human), UniProt Q9Y5X9). Put plainly: EL assay: endothelial lipase activity with fluorescent substrate A10070 in DMPG vesicles. It counts as biochemical. The procedure, abridged:
as §1

Structures are written as SMILES. Where two headings read alike, the source gives them in different places.

Consider 18 molecules from US8987314B2, “Amide, urea or sulfone amide linked benzothiazole inhibitors of endothelial lipase” (Bristol-Myers Squibb Company, priority 2012, dated 2015).

A word on the IC50: it is the concentration at which inhibition is half-maximal.

Endothelial lipase (EL), sequence (Q9Y5X9 21-500): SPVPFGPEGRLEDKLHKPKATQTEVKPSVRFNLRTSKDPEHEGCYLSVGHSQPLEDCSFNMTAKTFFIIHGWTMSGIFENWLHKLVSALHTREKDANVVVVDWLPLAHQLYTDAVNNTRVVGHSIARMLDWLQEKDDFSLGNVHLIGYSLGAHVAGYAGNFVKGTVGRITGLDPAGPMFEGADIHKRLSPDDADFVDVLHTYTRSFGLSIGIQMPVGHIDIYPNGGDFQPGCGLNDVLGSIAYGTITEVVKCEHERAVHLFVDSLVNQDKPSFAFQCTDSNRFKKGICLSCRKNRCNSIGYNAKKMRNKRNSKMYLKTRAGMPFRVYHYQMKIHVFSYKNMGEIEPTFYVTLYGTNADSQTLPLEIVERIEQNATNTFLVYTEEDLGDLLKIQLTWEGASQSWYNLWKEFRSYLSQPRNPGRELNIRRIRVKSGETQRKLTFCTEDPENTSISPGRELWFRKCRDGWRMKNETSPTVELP

Take `CC(C)(C)OC(=O)c1ccc(-c2ccc3nc(C(C(=O)N[C@@H]4CCNC4=O)S(=O)(=O)Cc4ccccc4)sc3c2)cc1` (stereo partly drawn) [Example B386, tert-butyl 4-[2-({[(3R)-2-oxopyrrolidin-3-yl]carbamoyl}(phenyl-methanesulfonyl)methyl)-1,3-benzothiazol-6-yl]benzoate]: the 50% inhibitory concentration (IC50) at hepatic lipase (HL) amounted to 14.3 nM; on Endothelial lipase (EL), 17.1 nM.
In the case of `COCCN(C)C(=O)c1ccc(-c2ccc3nc(C(C(=O)NCCS(N)(=O)=O)S(C)(=O)=O)sc3c2)cc1` (stereo not drawn) [Example B172, N-(2-Methoxyethyl)-N-methyl-4-(2-(1-(methylsulfonyl)-2-oxo-2-((2-sulfamoylethyl)amino)ethyl)-1,3-benzothiazol-6-yl)benzamide], the IC50 at hepatic lipase (HL) (HL partially purified from conditioned media of COS cells, 30 min incubation with compound at 37° C., A10070/DMPG vesicles) was 77 nM; on Endothelial lipase (EL) (EL from conditioned media of HT-1080 cells, 30 min incubation with compound at 37° C., A10070/DMPG vesicles), less than 10 nM.
In the case of `COc1cccc(-c2ccc3nc(C(C(=O)NCCS(N)(=O)=O)S(C)(=O)=O)sc3c2)n1` (stereo not drawn) [Example B185, 2-(6-(6-methoxy-2-pyridinyl)-1,3-benzothiazol-2-yl)-2-(methylsulfonyl)-N-(2-sulfamoylethyl)acetamide], the IC50 against hepatic lipase (HL) and against Endothelial lipase (EL) was less than 10 nM throughout.
For the molecule `CS(=O)(=O)C(C(=O)NCCS(N)(=O)=O)c1nc2cc(-c3ccccc3)ccc2s1` (stereo not drawn) [Example B92, 2-(methylsulfonyl)-2-(5-phenyl-1,3-benzothiazol-2-yl)-N-(2-sulfamoylethyl)a-cetamide], the IC50 on hepatic lipase (HL) and on Endothelial lipase (EL) was less than 10 nM throughout.
For `CS(=O)(=O)C(C(=O)NCCS(N)(=O)=O)c1nc2ccc(-c3ccc(-c4ncco4)cc3)cc2s1` (stereo not drawn) [Example B224, 2-methanesulfonyl-2-{6-[4-(1,3-oxazol-2-yl)phen-yl]-1,3-benzothiazol-2-yl}-N-(2-sulfamoylethyl)a-cetamide], the values for the half-maximal inhibitory concentration (IC50) against hepatic lipase (HL) and on Endothelial lipase (EL) were 10 nM and 8.4 nM, respectively.
For `COCCNC(=O)c1ccc(-c2ccc3nc(C(C(=O)NCCS(N)(=O)=O)S(=O)(=O)Cc4ccc(C(F)(F)F)cc4)sc3c2)cc1` (stereo not drawn) [Example B116, N-(2-methoxyethyl)-4-(2-(2-oxo-2-((2-sulfamoyl-ethyl)amino)-1-((4-(trifluoromethyl)benzyl)sul-fonyl)ethyl)-1,3-benzothiazol-6-yl)ben-zamide], in that order: 182 nM and less than 10 nM.
For `NS(=O)(=O)CCNC(=O)C(c1nc2ccc(C(=O)N3CCc4ccccc4C3)cc2s1)S(=O)(=O)CCC(F)(F)F` (stereo not drawn) [Example B201, 2-(6-(3,4-dihydro-2(1H)-isoquinolinylcarbonyl)-1,3-benzothiazol-2-yl)-N-(2-sulfamoylethyl)-2-((3,3,3-trifluoropropyl)sulfonyl)a-cetamide], in that order: 311 nM and 23 nM.
The corresponding values for `CN(C)C(=O)c1ccc(-c2ccc3nc(C(C(=O)NCCS(N)(=O)=O)S(=O)(=O)Cc4ccc(OC(F)(F)F)cc4)sc3c2)cc1F` (stereo not drawn) [Example B229, 2-fluoro-N,N-dimethyl-4-(2-{[(2-sulfamoylethyl)car-bamoyl][4-(trifluoro-methoxy)phenyl]methane-sulfonylmethyl}-1,3-benzothiazol-6-yl)ben-zamide] are 242 nM and 29.2 nM.
For `CN(CC(F)F)C(=O)c1cccc(-c2ccc3nc(C(C(=O)NCCS(N)(=O)=O)S(=O)(=O)CCC(F)(F)F)sc3c2)c1` (stereo not drawn) [Example B338, N-(2,2-difluoroethyl)-N-methyl-3-(2-{[(2-sulfamoylethyl)carba-moyl](3,3,3-trifluoropro-panesulfonyl)methyl}-1,3-benzothiazol-6-yl)benzamide], the concentration for half-maximal inhibition (IC50) was determined as 99.7 nM at hepatic lipase (HL) and 26.9 nM against Endothelial lipase (EL).
The corresponding values for `COCCS(=O)(=O)C(C(=O)NCc1nnc(C)o1)c1nc2cc(F)c(-c3ccc(C(=O)N(C)C)c(F)c3)cc2s1` (stereo not drawn) [Example B259, 2-fluoro-4-{5-fluoro-2-[(2-methoxyethanesulfon-yl)({[(5-methyl-1,3,4-oxadiazol-2-yl)methyl]car-bamoyl})methyl]-1,3-benzothiazol-6-yl}-N,N-dimethylbenzamide] are 208 nM and 121 nM.
The corresponding values for `CS(=O)(=O)C(C(=O)NCCS(N)(=O)=O)c1nc2ccc(-c3ccc4c(c3)CNC4=O)cc2s1` (stereo not drawn) [Example B182, 2-(methylsulfonyl)-2-(6-(1-oxo-2,3-dihydro-1H-isoindol-5-yl)-1,3-benzothiazol-2-yl)-N-(2-sulfamoylethyl)acetamide] are 36 nM and less than 10 nM.
For `NS(=O)(=O)CCNC(=O)C(c1nc2ccc(-c3ccc(CO)cc3)cc2s1)S(=O)(=O)CCN1CCOCC1` (stereo not drawn) [Example B314, 2-{6-[4-(hydroxymeth-yl)phenyl]-1,3-benzothiazol-2-yl}-2-[2-(morpholin-4-yl)ethanesulfonyl]-N-(2-sulfamoylethyl)acetamide], in that order: 35.1 nM and 16.1 nM.
For the molecule `CS(=O)(=O)C(C(=O)NCCS(N)(=O)=O)c1nc2cc(-c3cccnc3F)ccc2s1` (stereo not drawn) [Example B383, 2-[5-(2-fluoropyridin-3-yl)-1,3-benzothiazol-2-yl]-2-methanesulfonyl-N-(2-sulfamoylethyl)acetamide], the figures for the IC50 against hepatic lipase (HL) and against Endothelial lipase (EL) were 13 nM and 0.7 nM, respectively.
For `CC(=O)Nc1cccc(-c2ccc3nc(C(C(=O)NCCS(N)(=O)=O)S(C)(=O)=O)sc3c2)c1` (stereo not drawn) [Example B52, 2-(6-(3-acetamidophenyl)-1,3-benzothiazol-2-yl)-2-(methylsulfonyl)-N-(2-sulfamoylethyl)acetamide], the IC50 against hepatic lipase (HL) was 66 nM; on Endothelial lipase (EL) it was less than 10 nM.
Regarding `Cc1cc2nc(C(C(=O)NCCS(N)(=O)=O)S(=O)(=O)Cc3ccccc3)sc2cc1-c1ccc(C(=O)O)cc1` (stereo not drawn) [Example B325, 4-(5-methyl-2-{phen-ylmethanesulfonyl[(2-sulfa-moylethyl)carbamoyl]meth-yl}-1,3-benzothiazol-6-yl)benzoic acid], the IC50 against hepatic lipase (HL) amounted to 104 nM; against Endothelial lipase (EL), 1.2 nM.
For `COCCS(=O)(=O)C(C(=O)NCc1nnc(C)o1)c1nc2ccc(-c3ccc(C(=O)N4CC(C)(O)C4)cc3)cc2s1` (stereo not drawn) [Example B265, 2-{6-[4-(3-hydroxy-3-methylazetidine-1-carbonyl)phenyl]-1,3-benzothiazol-2-yl}-2-(2-methoxyethanesulfonyl)-N-[(5-methyl-1,3,4-oxadiazol-2-yl)methyl]a-cetamide], in that order: 634 nM and 59 nM.
For the molecule `NS(=O)(=O)CCNC(=O)C(c1nc2ccc(-c3cccc(C(=O)N4CC(F)C4)c3)cc2s1)S(=O)(=O)CCC(F)(F)F` (stereo not drawn) [Example B336, 2-{6-[3-(3-fluoroazetidine-1-carbonyl)phenyl]-1,3-benzothiazol-2-yl}-N-(2-sulfamoylethyl)-2-(3,3,3-trifluoropropanesulfonyl)a-cetamide], the IC50 against hepatic lipase (HL) stood at 22.6 nM; at Endothelial lipase (EL), 8.2 nM.
With `Cc1nnc(CNC(=O)C(c2nc3cc(F)c(-c4ccccc4)cc3s2)S(=O)(=O)CC(C)C)o1` (stereo not drawn) [Example B152, 2-(5-fluoro-6-phenyl-1,3-benzothiazol-2-yl)-2-(isobutylsulfonyl)-N-((5-methyl-1,3,4-oxadiazol-2-yl)methyl)acetamide], the 50% inhibitory concentration (IC50) is 39 nM at hepatic lipase (HL) and less than 10 nM at Endothelial lipase (EL).
